One data set has as its target CYP2C19 (Homo sapiens (Human), UniProt P33261). Put plainly: Extracellular cytochrome P450 inhibition (microsomes). Type of data set: in vitro ADME. The following applies: mephenytoin 4′-hydroxylation. The text has this: Final solvent concentrations were 1% (v/v) or less.
A short description of data set [1]: Oral dosing of amorphous phase A and Form C in rats. Type of data set: in vivo.
A short description of data set [2]: Physical and chemical stability of polymorphs (storage, humidity chamber). The following applies: for XRPD pattern after one week stability study: 40° C. and 75% RH, one week in humidity chamber. Type of data set: physicochemical.
A short description of data set [3]: Thermodynamic aqueous solubility by HPLC. Type of data set: physicochemical. To be noted: water, 25° C. On the procedure:
The suspension was equilibrated at 25° C. for 24 hours then the pH was measured. The suspension was then filtered through a glass fibre C filter into a 96 well plate. […] Quantitation was by HPLC with reference to a standard solution of approximately 0.1 mg.ml^−1 in DMSO. Different volumes of the standard, diluted and undiluted sample solutions were injected.
Analysis was performed on an Agilent HP1100 series system equipped with a diode array detector and using ChemStation software vB.02.01-SR1.

Data set [4] can be described thus: Gravimetric vapour sorption (GVS). The following applies: for XRPD pattern after the GVS experiment: after full sorption/desorption cycle; for water adsorbed (GVS): at 90% RH. It counts as physicochemical. As for the experimental part: Sorption isotherms were obtained using a Hiden IGASorp moisture sorption analyser, controlled by CFRSorp software. The sample temperature was maintained at 25° C. by a Huber re-circulating water bath. The humidity was controlled by mixing streams of dry and wet nitrogen, with a total flow rate of 250 ml. min^−1. The relative humidity was measured by a calibrated Vaisala RH probe (dynamic range of 0-95% RH), located near the sample. The weight change, (mass relaxation) of the sample as a function of % RH was constantly monitored by the microbalance (accuracy ±0.001 mg).
Typically 10-20 mg of sample was placed in a tared mesh stainless steel basket under ambient conditions. The sample was loaded and unloaded at 40% RH and 25° C. (typical room conditions).
A moisture sorption isotherm was performed as outlined below (2 scans giving 1 complete cycle). The standard isotherm was performed at 25° C. at 10% RH intervals over a 0-90% RH range.
The software uses a least squares minimisation procedure together with a model of the mass relaxation, to predict an asymptotic value. The measured mass relaxation value must be within 5% of that predicted by the software, before the next % RH value is selected. The minimum equilibration time was set to 1 hour and the maximum to 4 hours.

Data set [5] can be described thus: Liquid formulations for oral solutions/suspensions. It counts as physicochemical. The following applies: below pH values of about 9-10. On the procedure: Values of pH reported were estimated based on pH indicating strips. […] Accordingly, provided in certain embodiments herein were formulations having a pH above about 9, above about 10 or of about 10. In certain embodiments, the formulation was buffered at a pH of about 10. All formulations prepared were sonicated for about 10 minutes.

Data set [6] concerns whole blood ionophore-stimulated leukotriene LTB4. Put plainly: Phase I study: ex vivo ionophore-stimulated LTB4. Type of data set: in vivo, human. The following applies: in vivo. The text has this: Study Design: Single center, double-blind, randomized, placebo-controlled, single ascending dose followed by multiple ascending dose study.
Sample Size: (1) Single Dose Phase: eight (8) subjects (6 active, 2 placebo) per dose level; up to 5 dose levels are planned (a total of 40 subjects if all 5 dose levels are completed); and (2) Multiple Dose Phase: eight (8) subjects (6 active, 2 placebo) per dose level; up to 4 dose levels are planned (a total of 32 subjects if all 4 dose levels are completed).
Formulations: Compound 2 was supplied as an oral powder for reconstitution. Placebo solution matched. […] The placebo differed only in the absence of the active.
The following dosing cohorts were used:
Routes of Administration: All doses were administered orally with approximately 100 mL of water rinse. Subjects were fasted for at least 8 hours prior to dosing and for 2 hours after dosing. For BID dosing in the Multiple Dose Phase, when applicable, subjects were fasted for at least 2 hours prior to the second daily dose.
Plasma concentrations of Compound 1 were determined using a validated LC/MS method. Whole blood ionophore-stimulated leukotriene LTB4 and urinary LTE4 production were assayed by ELISA and mass spectrometry, respectively.
Analysis of Samples: Concentrations of Compound 1 was determined in plasma samples collected from subjects. Similarly, concentrations of LTB4 in plasma and urinary LTE4 were determined in blood and urine samples collected.

For data set [7] the following is noted: female, CD-1, mouse, in vivo, po, 250 mg/kg/day, 4 days.
Experimental: Twenty-four hours following the final drug administration mice were placed into an enclosed Plexiglas chamber and exposed to CO2 for a period of 30-60 seconds or until breathing ceased. They were then removed subject to cervical dislocation and blood taken via a cardiac puncture. Mice were next placed in a supine position and a midline incision made. All organs were inspected and the livers removed by careful dissection. Liver weights were recorded as well as any gross abnormalities.

Entries after “also recorded” stand apart in the source; their conditions may differ. Read-outs that look alike come from different tables or passages of the source.

What is called IC50 is the concentration needed to halve the response being measured. Higher therefore signals a need for much substance.

CYP2C19, sequence (P33261 whole entry): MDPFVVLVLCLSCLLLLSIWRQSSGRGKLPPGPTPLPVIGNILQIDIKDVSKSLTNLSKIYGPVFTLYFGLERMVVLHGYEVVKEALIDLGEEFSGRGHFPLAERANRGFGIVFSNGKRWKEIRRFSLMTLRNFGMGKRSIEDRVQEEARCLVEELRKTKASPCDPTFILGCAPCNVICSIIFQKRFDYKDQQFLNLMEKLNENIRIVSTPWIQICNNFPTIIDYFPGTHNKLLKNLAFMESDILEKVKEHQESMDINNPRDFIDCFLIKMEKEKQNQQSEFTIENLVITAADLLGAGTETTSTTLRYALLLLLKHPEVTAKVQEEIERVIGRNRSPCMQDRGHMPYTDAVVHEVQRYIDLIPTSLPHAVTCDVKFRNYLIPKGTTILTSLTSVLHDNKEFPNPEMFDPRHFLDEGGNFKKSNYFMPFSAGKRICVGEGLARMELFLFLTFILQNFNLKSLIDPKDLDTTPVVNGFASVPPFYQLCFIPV

Regarding `CCC1(c2ccccc2)C(=O)NC(=O)N(Cc2ccccc2)C1=O` (single isomer, unassigned; (-)) [(−)-N-3-benzyl-phenobarbital, reference compound], inhibition on CYP2C19 was half-maximal at 2800 nM (IC50).
Take `CCOc1ccc(-c2ccc(Cn3c(CC(C)(C)C(=O)[O-])c(SC(C)(C)C)c4cc(OCc5ccc(C)cn5)ccc43)cc2)cn1.[Na+]` [Amorphous Phase A, sodium 3-[3-(tert-butylsulfanyl)-1-[4-(6-ethoxy-pyridin-3-yl)benzyl]-5-(5-methyl-pyridin-2-yl-methoxy)-1H-indol-2-yl]-2,2-dimethylpropionate]: the “plasma exposures after oral dosing” value in data set [1] is “equivalent plasma exposures”. Besides, the “XRPD pattern after one week stability study” value in data set [2] is “remains amorphous”. For the same compound, the “physical and chemical stability” value in data set [2] (listed as Amphorous Phase A) is on record as “chemically stable”. Besides, the Concentration of filtrate in data set [3] (24 hours) was >10 mg/mL of free base. In data set [3] (listed as Compound 2 Phase A), the “Appearance of mixture after equilibration for 24 hours” value is “Suspension” and the “pH of unfiltered saturated solution” value is 9.14. For the same compound, in data set [4], the hygroscopicity entry is “hygroscopic”, the “XRPD pattern after the GVS experiment” value is “No changes were observed” and the “water adsorbed (GVS)” value is on record as “more than 22%”. Further, in data set [4] (listed as Amphorous Phase A), the “water adsorbed (GVS)” value is listed as “more than 20%” and the hygroscopicity entry was “hygroscopic”.
Turning to `CCOc1ccc(-c2ccc(Cn3c(CC(C)(C)C(=O)O)c(SC(C)(C)C)c4cc(OCc5ccc(C)cn5)ccc43)cc2)cn1` [Compound 1, 3-[3-(tert-butylsulfanyl)-1-[4-(6-ethoxy-pyridin-3-yl)benzyl]-5-(5-methyl-pyridin-2-yl-methoxy)-1H-indol-2-yl]-2,2-dimethylpropanoic acid], the “solubility in certain solvent systems” value in data set [5] is “sparingly soluble”. The “plasma concentration at complete inhibition of ionophore-stimulated LTB4 production” value in data set [6] fell in the range of 1000 to 1500 ng/mL.
`CCOc1ccc(-c2ccc(Cn3c(CC(C)(C)C(=O)[O-])c(SC(C)(C)C)c4cc(OCc5ccc(C)cn5)ccc43)cc2)cn1.[Na+]` [Form C, sodium 3-[3-(tert-butylsulfanyl)-1-[4-(6-ethoxy-pyridin-3-yl)benzyl]-5-(5-methyl-pyridin-2-yl-methoxy)-1H-indol-2-yl]-2,2-dimethylpropionate]: the “plasma exposures after oral dosing” value in data set [1] is listed as “equivalent plasma exposures”. The “physical and chemical stability” value in data set [2] is “physically and chemically stable”. The “physical and chemical stability” value in data set [2] (5° C., 25° C./60% RH and 40° C./75% RH for at least one month) was “physically and chemically stable”. Further, the “XRPD pattern after one week stability study” value in data set [2] (listed as polymorph Form C) is given as “remains unchanged”. Also, in data set [4], the hygroscopicity entry was “non-hygroscopic; also recorded: nonhygroscopic” and the “water adsorbed (GVS)” value is less than 9%. In data set [4] (listed as polymorph Form C), the “XRPD pattern after the GVS experiment” value is on record as “No changes were observed”, the “water adsorbed (GVS)” value was determined as 8.2% and the hygroscopicity entry is “significantly less hygroscopic than the amorphous material”.
As for `CCOc1ccc(-c2ccc(Cn3c(CC(C)(C)C(=O)[O-])c(SC(C)(C)C)c4cc(OCc5ccc(C)cn5)ccc43)cc2)cn1.[Na+]` [Solvated Form B, sodium 3-[3-(tert-butylsulfanyl)-1-[4-(6-ethoxy-pyridin-3-yl)benzyl]-5-(5-methyl-pyridin-2-yl-methoxy)-1H-indol-2-yl]-2,2-dimethylpropionate], the “physical and chemical stability” value in data set [2] is “physically and chemically stable”. Besides, in data set [4], the hygroscopicity entry was “hygroscopic” and the “water adsorbed (GVS)” value is given as “more than 30%”. Also, in data set [4] (listed as Polymorph Form B), the “XRPD pattern after the GVS experiment” value was “becomes almost totally amorphous”, the “water adsorbed (GVS)” value is given as “more than 30%” and the hygroscopicity result is on record as “hygroscopic”.
Consider `CC(c1cc2ccccc2s1)N(O)C(N)=O` (centres unmarked) [Zileuton, zileuton, reference compound], for which, in data set [7], the Liver weight stood at 1.6 ± 0.2, the “Liver weight (% body weight)” value is 5.5 % body weight and the “liver weight change as compared to vehicle control” value is 31.0%.

The values above are taken from patent US8772495B2, “5-lipoxygenase-activating protein inhibitor” (Panmira Pharmaceuticals, LLC, priority 2008, dated 2014).
